Assays:
Type in all cases: physicochemical
[1] = EPR measurement of oxygen sensitivity (EPR line widening after flushing with oxygen); conditions: for widening of the EPR line after the solution is flushed with oxygen: in toluene, reversible
[2] = Relaxometric measurement of proton relaxivity; conditions: aqueous solution, spin concentration 6 μm, 37° C., about 15 mT (600 kHz)
Description: Substance (III) has a relaxivity r1≅47 mM^−1s^−1 (compared to the trityl derivatives with relaxivity values of between 0.14 mM^−1s^−1 and 0.44 mM^−1s^−1 [ii], and [iii]) in aqueous solution with a spin concentration of 6 μm at a solvent temperature of 37° C. This unexpectedly high value is present at a magnetic field strength of about 15 mT, which corresponds to a radiofrequency of 600 kHz and thus to the conditions of very low magnetic field strength that are necessary for OMRI.

[3] = Electron spin relaxation times by pulsed spin-echo EPR (X-band) and CW EPR line widths (L-band) in liquid solution; conditions: pulsed spin-echo EPR in X-band (9.5 GHz), CW EPR line widths in L-band (1.1 GHz)
Description: The substance N@C63(COOH)6 (III) according to the invention has long spin-relaxation times of the unpaired electron. It was possible to measure very long electronic relaxation times T1e≅150 μs and T2e≅22 μs in liquid solution, which are longer by at least one order of magnitude than that of the […], (see FIG. 4) with pulsed spin-echo EPR measurements in X-band (9.5 GHz EPR larmor frequency) and from CW EPR line widths in the L-band (1.1 GHz of EPR larmor frequency). From [ii] Table 3, page 8, in isotonic NaCl solution at 37° C.: “predeuterated trityl”: T1e≅13 μs, T2e≅8 μs; “deuterated hydroxy trityl”: T1e≅11 μs, T2e≅8 μs, “symmetrical trityl”: T1e≅9 μs, T2e≅9 μs.

| oxygen-sensitivity [1] | widening of the EPR line after the solution is flushed with oxygen [1] | relaxivity r1 [2] [mM⁻¹ s⁻¹] | electronic relaxation time T1e [3] [μs] | electronic relaxation time T2e [3] [μs] | Substance |
| --- | --- | --- | --- | --- | --- |
| low | does not occur |  |  |  | N@C60 [I] |
|  |  | ~47 | ~150 | ~22 | N@C63 (COONa)6 [III] |
| elevated | 20 × |  |  |  | P@C60 [IX] |

Reference: US20070014727A1, “Contrast media for nuclear spin tomography with use of the overhauser effect” (priority 2005, published 2007)
